Laboratory results taken from US10350235B2, “Cationic polysaccharides for delivery of phosphoinositides to cells for therapeutic purpose” (priority 2015, dated 2019).
One block for each compound: values may come before it.

Legend:
[1] = tested on: HEK293 cells; assay: Autophagy flux (LC3-II western blot with and without bafilomycin A1); format: cell-based
Experimental: Autophagy Flux was assessed using western blot by comparing of the cumulative LC3-II levels in HEK293 cells with and without autophagy inhibitor—bafilomycin A1 (vacuolar H+ ATPase inhibitor, 0.1 μM). Bafilomycin A1 inhibits autophagosomes degradation by fusion with lysosome since it prevents the lysosome acidification. LC3-II is an autophagosomal membrane protein therefore it is used as autophagy marker. HEK293 cells were seeded in a 6-well plate 24 hours before treatment in DMEM growth media. The cells were incubated with or without bafilomycin A1 and 3-Methyladenine (3-MA) in EBSS for 2 hours (3-MA, 5 mM) in 37° C. and 5% CO2. 3-MA acts as an autophagy inhibitor since it inhibits III phosphatidylinositol 3-kinases (PI-3K) which produce the endogenous PI3P. At the second hour the cells were treated with Q-starch/PI3P complexes at N/P ratio of 2 and with PI3P alone as control (final PI3P concentration in each well was 0.5 μM).
Up-regulation of autophagy in HEK293 cells with the Q-starch/PI3P complexes was assessed by comparing the autophagy flux for the following conditions (FIG. 7): flux after 3 hours of serum starvation, flux after inhibition of the formation of endogenous PI3P by 3-MA (3-Methyladenine), flux after treatment with 3-MA and complexes at N/P ratio of 2 and flux after treatment with 3-MA and PI3P.

[2] = Zeta potential (Zetasizer, Smoluchowski model); format: physicochemical; details: in mV (unit assumed)
Experimental: The hydrodynamic size of the complexes was measured by dynamic light scattering (DLS). Spectra were collected by using CGS-3, (ALV, Langen, Germany). The laser power was 20 mW at the He—Ne laser line (632.8 nm). Correlograms were calculated by ALV/LSE 5003 correlator, which were collected at 90°, during 20 s for 10 times, at 25° C. The correlograms were fitted with version of the program CONTIN (provencher, 1982). Samples of complexes were each diluted to a final volume of 1 mL in DDW. Each sample was measured three times and solutions were further diluted until results were independent of dilution rate. Complexes' size is presented as average of triplicates. Samples from DLS were transferred to U-tube cuvette (DTS 1070, Malvern) for subsequent zeta potential measurements using Zetasizer (ZN-NanoSizer, Malvern, England). Each sample was measured at automatic mode, at 25° C. and the Smoluchowski model was used to calculate the zeta potential. For each sample the zeta potential value was presented as the average value of three runs, and the average value of each N/P ratio is presented as the average of triplicates.

[3] = Cryo-TEM imaging of complex size and geometry in solution; format: physicochemical; details: FIG. 3; complexes at N/P ratios of 2 to 3
Experimental: Complex size and geometry in solution were visualized using Cryo-TEM. TEM at cryogenic temperature (Cryo-TEM) is used for direct imaging of solutions and dispersions. Vitrified specimens are prepared on a copper grid coated with a perforated lacy carbon 300 mesh (Ted Pella Inc.). A typically 4 μl drop from the solution is applied to the grid and blotted with a filter paper to form a thin liquid film of solution. The blotted sample are immediately plunged into liquid ethane at its freezing point (−183° C.). The procedure is performed automatically in the Plunger (Lieca EM GP). The vitrified specimens are transferred into liquid nitrogen for storage. the samples are studied using a FEI Tecnai 12 G2 TEM, at 120 kV with a Gatan cryo-holder maintained at −180° C., and images are recorded on a slow scan cooled charge-coupled device CCD camera Gatan manufacturer. Images are recorded with the Digital Micrograph software package, at low dose conditions, to minimize electron beam radiation damage.

Structure (SMILES): Cn1cnc(N)c2ncnc1-2 [3-MA, 3-Methyladenine]
autophagy flux (difference in LC3-II levels with and without bafilomycin A1) ([1]; 3-MA 5 mM alone, compared to serum starvation): decrease in the autophagy flux

average zeta potential ([2]; non-complexed alone (FIG. 4B): 0.5 μM PI3P, 0.45 mg/L Q-starch): −14.8±3.8
Structure (SMILES): CCCCCCCC(=O)OC[C@H](COP(=O)(O)O[C@@H]1[C@H](O)[C@H](OP(=O)(O)O)[C@@H](O)[C@H](O)[C@H]1O)OC(=O)CCCCCCC [PI3P, Phosphatidylinositol 3-phosphate diC8]
autophagy flux (difference in LC3-II levels with and without bafilomycin A1) ([1]; with 3-MA 5 mM in EBSS, final PI3P 0.5 μM, complexes at N/P=2): did not affect the levels of autophagy flux

average zeta potential ([2]; non-complexed component alone (FIG. 1)): −20.83
shape in cryo-TEM images [3]: shape of long filaments
Structure (SMILES): CCCCCCCCCCCCCCCC(=O)OC[C@H](COP(=O)(O)OC1[C@H](O)[C@H](OP(=O)(O)O)C(OP(=O)(O)O)[C@H](OP(=O)(O)O)[C@H]1O)OC(=O)CCCCCCCCCCCCCCC (some centres unmarked) [PIP3, phosphatidylinositol (3,4,5) trisphosphate diC16]
